Measured values published in article PMC5840262, “Design, Synthesis and Evaluation of Branched RRWQWR-Based Peptides as Antibacterial Agents Against Clinically Relevant Gram-Positive and Gram-Negative Pathogens” (Frontiers in Microbiology, 2018).
In brackets after ≈: the same amount, converted by molar mass. Bridge positions count the residues as written; N and C are the ends. Square brackets hold non-standard residues; d marks the D form. Peptide text beside a SMILES is read from it. I, II: the chains in the order shown. Ahx = NCCCCCC(=O)O

Experiments:
Format in all cases: cell-based
[1] = test system: Enterococcus faecium clinical isolate 1,040
Experimental: (§1) For the clinical isolates, we used 20 different isolates from the Public Health Reference Laboratory collection of the Secretaría de Salud del Distrito (SdSD; Bogotá, Colombia). The samples were collected from June to December 2016. For each isolate, the patient parameters (age, gender and location) and the culture site were recorded for epidemiologic monitoring (Table 1). All isolates had been previously tested for antibiotic sensitivity at the Public Health Microbiology Laboratory using either the Phoenix™ system (Gram-positive) or the VITEK 2 system (Gram-negative).
(§2) We screened all five peptides against the ATCC reference strains and the clinical isolates according to Method M7-A7 of the National Committee for Clinical Laboratory Standards (CLSI, [2007]). The MIC50 and MBC values were determined using a broth microdilution and growth inhibition method previously reported by Leon-Calvijo et al. ([2015]), with some modifications (Wiegand et al., [2008]). Briefly, the MIC50 experiments comprised a liquid-inhibition growth assay in a sterile, untreated, 96-well flat-bottom tissue culture plate. The bacteria were cultured overnight n Mueller Hinton agar; three colonies were transferred to 8 mL of Mueller Hilton broth and incubated at 37°C until the mid-exponential phase of growth. The turbidity of the cultures was measured and adjusted spectrophotometrically to a McFarland standard of 0.5, and then diluted to a final concentration of 5 × 10^7 colony forming units (CFU) per well. Stock solutions (2,000 μM) of each test peptide were serially diluted to final concentrations (per well) of 200, 100, 50, 25, 12.5, and 6.25 μM. Each concentration was evaluated in duplicate and each assay was performed in triplicate.
(§3) Wells containing Mueller Hilton broth with bacterial inoculum only served as bacterial-growth controls. Additional controls included Mueller Hilton broth alone (as blank) and Mueller Hilton broth with ciprofloxacin (2 μg/mL; as positive control). The microplate was incubated for 24 h at 37°C, and growth inhibition was measured by monitoring the optical density at 620 nm (OD620). The MIC50 was defined as the peptide concentration at which bacterial growth was inhibited by 50%.
(§4) To determine the MBC, an aliquot from each well of the MIC50 assay was spread onto Mueller Hilton agar. After 18 h at 37°C, the concentration that inhibited bacterial growth was determined. Each of these tests was performed four times. MBC was defined as the lowest concentration of peptide at which the number of bacteria was reduced by 99.9% in vitro (European Committee for Antimicrobial Susceptibility Testing, [2000]).

[2] = test system: Enterococcus faecium clinical isolate 1,225
Experimental: as §1, §2, §3, §4

[3] = test system: Enterococcus faecium clinical isolate 1,461
Experimental: as §1, §2, §3, §4

[4] = test system: Enterococcus faecium clinical isolate 550
Experimental: as §1, §2, §3, §4

[5] = test system: Klebsiella pneumoniae clinical isolate 50,181
Experimental: as §1, §2, §3, §4

[6] = test system: Klebsiella pneumoniae clinical isolate 50,424
Experimental: as §1, §2, §3, §4

[7] = test system: Klebsiella pneumoniae clinical isolate 51,009
Experimental: as §1, §2, §3, §4

[8] = test system: Klebsiella pneumoniae clinical isolate 51,048
Experimental: as §1, §2, §3, §4

[9] = test system: Pseudomonas aeruginosa clinical isolate 47,661
Experimental: as §1, §2, §3, §4

[10] = test system: Pseudomonas aeruginosa clinical isolate 48,220
Experimental: as §1, §2, §3, §4

[11] = test system: Pseudomonas aeruginosa clinical isolate 48,221
Experimental: as §1, §2, §3, §4

[12] = test system: Pseudomonas aeruginosa clinical isolate 48,458
Experimental: as §1, §2, §3, §4

[13] = test system: Pseudomonas aeruginosa clinical isolate 48,526
Experimental: as §1, §2, §3, §4

[14] = test system: Staphylococcus aureus clinical isolate 43,062
Experimental: as §1, §2, §3, §4

[15] = test system: Staphylococcus aureus clinical isolate 43,337
Experimental: as §1, §2, §3, §4

[16] = test system: Staphylococcus aureus clinical isolate 52,013
Experimental: as §1, §2, §3, §4

**Q.** How did the MBC ([1]; clinical isolate 1,040, 18 h) turn out when `N=C(N)NCCC[C@H](NC(=O)[C@H](Cc1c[nH]c2ccccc12)NC(=O)[C@H](CCC(N)=O)NC(=O)[C@H](Cc1c[nH]c2ccccc12)NC(=O)[C@H](CCCNC(=N)N)NC(=O)[C@@H](N)CCCNC(=N)N)C(=O)NCCCC[C@H](NC(=O)[C@H](CCCNC(=N)N)NC(=O)[C@H](Cc1c[nH]c2ccccc12)NC(=O)[C@H](CCC(N)=O)NC(=O)[C@H](Cc1c[nH]c2ccccc12)NC(=O)[C@H](CCCNC(=N)N)NC(=O)[C@@H](N)CCCNC(=N)N)C(=O)NCCCCCC(N)=O` [LfcinB (20–25)2] (I: H-RRWQWRK[Ahx]-NH2 / II: H-RRWQWR; amide I:7-II:C; N-terminus assumed) was run?
**A.** The MBC was >100 µM.

**Q.** And the MIC50 ([1]; clinical isolate 1,040, 24 h)?
**A.** Its MIC50 is >100 µM.

**Q.** What about the MBC ([2]; clinical isolate 1,225, 18 h) of the same molecule?
**A.** The MBC was >100 µM.

**Q.** What about the MIC50 ([2]; clinical isolate 1,225, 24 h) of the same molecule?
**A.** The MIC50 was >100 µM.

**Q.** And the MBC ([3]; clinical isolate 1,461, 18 h)?
**A.** Its MBC is >100 µM.

**Q.** What about the MIC50 ([3]; clinical isolate 1,461, 24 h) of the same molecule?
**A.** The MIC50 was >100 µM.

**Q.** And the MBC ([4]; clinical isolate 550, 18 h)?
**A.** The MBC was >100 µM.

**Q.** And the MIC50 ([4]; clinical isolate 550, 24 h)?
**A.** The MIC50 was >100 µM.

**Q.** And the MBC ([5]; clinical isolate 50,181, 18 h)?
**A.** Its MBC is 100.0 µM (≈ 220 µg/mL).

**Q.** And the MIC50 ([5]; clinical isolate 50,181, 24 h)?
**A.** The MIC50 was 6.6 µM (≈ 14.5 µg/mL).

**Q.** What about the MBC ([6]; clinical isolate 50,424, 18 h) of the same molecule?
**A.** Its MBC is >100 µM.

**Q.** What about the MIC50 ([6]; clinical isolate 50,424, 24 h) of the same molecule?
**A.** The MIC50 was 5.8 µM (≈ 12.7 µg/mL).

**Q.** And the MBC ([7]; clinical isolate 51,009, 18 h)?
**A.** The MBC was 25.0 µM (≈ 54.9 µg/mL).

**Q.** What about the MIC50 ([7]; clinical isolate 51,009, 24 h) of the same molecule?
**A.** Its MIC50 is 5.6 µM (≈ 12.3 µg/mL).

**Q.** What about the MBC ([8]; clinical isolate 51,048, 18 h) of the same molecule?
**A.** The MBC was 100.0 µM (≈ 220 µg/mL).

**Q.** What about the MIC50 ([8]; clinical isolate 51,048, 24 h) of the same molecule?
**A.** The MIC50 was 5.7 µM (≈ 12.5 µg/mL).

**Q.** What about the MBC ([9]; clinical isolate 47,661, 18 h) of the same molecule?
**A.** Its MBC is >100 µM.

**Q.** And the MIC50 ([9]; clinical isolate 47,661, 24 h)?
**A.** The MIC50 was 13.4 µM (≈ 29.4 µg/mL).

**Q.** And the MBC ([10]; clinical isolate 48,220, 18 h)?
**A.** Its MBC is 50.0 µM (≈ 110 µg/mL).

**Q.** And the MIC50 ([10]; clinical isolate 48,220, 24 h)?
**A.** Its MIC50 is 50.0 µM (≈ 110 µg/mL).

**Q.** And the MBC ([11]; clinical isolate 48,221, 18 h)?
**A.** The MBC was >100 µM.

**Q.** And the MIC50 ([11]; clinical isolate 48,221, 24 h)?
**A.** The MIC50 was 64.2 µM (≈ 141 µg/mL).

**Q.** What about the MBC ([12]; clinical isolate 48,458, 18 h) of the same molecule?
**A.** The MBC was >100 µM.

**Q.** What about the MIC50 ([12]; clinical isolate 48,458, 24 h) of the same molecule?
**A.** The MIC50 was 75.0 µM (≈ 165 µg/mL).

**Q.** And the MBC ([13]; clinical isolate 48,526, 18 h)?
**A.** Its MBC is >100 µM.

**Q.** What about the MIC50 ([13]; clinical isolate 48,526, 24 h) of the same molecule?
**A.** The MIC50 was 36.3 µM (≈ 79.7 µg/mL).

**Q.** What about the MBC ([14]; clinical isolate 43,062, 18 h) of the same molecule?
**A.** Its MBC is 50.0 µM (≈ 110 µg/mL).

**Q.** What about the MIC50 ([14]; clinical isolate 43,062, 24 h) of the same molecule?
**A.** The MIC50 was 13.5 µM (≈ 29.7 µg/mL).

**Q.** And the MBC ([15]; clinical isolate 43,337, 18 h)?
**A.** Its MBC is 25.0 µM (≈ 54.9 µg/mL).

**Q.** And the MIC50 ([15]; clinical isolate 43,337, 24 h)?
**A.** Its MIC50 is 13.5 µM (≈ 29.7 µg/mL).

**Q.** What about the MBC ([16]; clinical isolate 52,013, 18 h) of the same molecule?
**A.** The MBC was 25.0 µM (≈ 54.9 µg/mL).

**Q.** What about the MIC50 ([16]; clinical isolate 52,013, 24 h) of the same molecule?
**A.** The MIC50 was 12.6 µM (≈ 27.7 µg/mL).
